The results in this text go back to ChEMBL document CHEMBL1124182, “Design, synthesis, and properties of (4S)-7-(4-amino-2-substituted-pyrrolidin-1-yl)quinolone-3-carboxylic acids” (J Med Chem, 1988).

One may read the MIC as the lowest concentration found to suppress growth.

Converted amounts (≈) assume the structure as drawn.

One experiment concerns Acinetobacter. Put plainly: In vitro Minimum inhibitory concentration against Acinetobacter CMX 669. It is filed as functional. The following applies: Acinetobacter; read-out: MIC.
Turning to `O=C(O)c1cn(-c2ccc(F)cc2)c2cc(N3CCC[C@@H]3CO)c(F)cc2c1=O`, the MIC was determined as 0.78 mg/L (≈ 1.95 µM).
Same read-out and setting: the same measure for `COCC1C[C@H](N)CN1c1nc2c(cc1F)c(=O)c(C(=O)O)cn2-c1ccc(F)cc1F` (some centres not stated): 0.78 mg/L (≈ 1.74 µM); for `O=C(O)c1cn(-c2ccc(F)cc2F)c2cc(N3C[C@@H]4C[C@H]3CN4)c(F)cc2c1=O`: 0.39 mg/L (≈ 0.939 µM).

Another experiment deals with Escherichia coli. Put plainly: In vitro Minimum inhibitory concentration against Escherichia coli Juhl. It is filed as functional.
Conditions: not given
In the case of `O=C(O)c1cn(-c2ccc(F)cc2)c2cc(N3CCC[C@@H]3CO)c(F)cc2c1=O`, the MIC came out at 0.78 mg/L (≈ 1.95 µM).
`COCC1C[C@H](N)CN1c1nc2c(cc1F)c(=O)c(C(=O)O)cn2-c1ccc(F)cc1F` (some centres not stated) had an MIC of 0.2 mg/L (≈ 0.446 µM).
In the case of `O=C(O)c1cn(-c2ccc(F)cc2F)c2cc(N3C[C@@H]4C[C@H]3CN4)c(F)cc2c1=O`, it took 0.05 mg/L (≈ 0.12 µM) to inhibit growth (MIC).

The subject of a further experiment is Klebsiella pneumoniae. As to the kind of experiment: In vitro Minimum inhibitory concentration against Klebsiella pneumoniae 8045. It is filed as functional.
Conditions: not given
`O=C(O)c1cn(-c2ccc(F)cc2)c2cc(N3CCC[C@@H]3CO)c(F)cc2c1=O`: the MIC was 0.78 mg/L (≈ 1.95 µM).
Still for that read-out and setting: the same measure for `COCC1C[C@H](N)CN1c1nc2c(cc1F)c(=O)c(C(=O)O)cn2-c1ccc(F)cc1F` (some centres not stated): 0.1 mg/L (≈ 0.223 µM); for `O=C(O)c1cn(-c2ccc(F)cc2F)c2cc(N3C[C@@H]4C[C@H]3CN4)c(F)cc2c1=O`: 0.05 mg/L (≈ 0.12 µM).

In a further experiment the test system is Pseudomonas aeruginosa. As to the kind of experiment: In vitro Minimum inhibitory concentration against Pseudomonas aeruginosa 5007.
Conditions: not given
In kind it is functional.
The compound `O=C(O)c1cn(-c2ccc(F)cc2)c2cc(N3CCC[C@@H]3CO)c(F)cc2c1=O` displayed an MIC of 3.1 mg/L (≈ 7.74 µM).
Same read-out and setting: in the case of `COCC1C[C@H](N)CN1c1nc2c(cc1F)c(=O)c(C(=O)O)cn2-c1ccc(F)cc1F` (some centres not stated) it was 1.56 mg/L (≈ 3.48 µM); in that of `O=C(O)c1cn(-c2ccc(F)cc2F)c2cc(N3C[C@@H]4C[C@H]3CN4)c(F)cc2c1=O`, 1.56 mg/L (≈ 3.76 µM).

The next experiment deals with Pseudomonas aeruginosa. As to the kind of experiment: In vitro Minimum inhibitory concentration against Pseudomonas aeruginosa K799/WT. In kind it is functional.
Conditions: not given
On to `O=C(O)c1cn(-c2ccc(F)cc2)c2cc(N3CCC[C@@H]3CO)c(F)cc2c1=O`, for which the MIC was 3.1 mg/L (≈ 7.74 µM).
Still for that read-out and setting: in the case of `COCC1C[C@H](N)CN1c1nc2c(cc1F)c(=O)c(C(=O)O)cn2-c1ccc(F)cc1F` (some centres not stated) it was 1.56 mg/L (≈ 3.48 µM); in that of `O=C(O)c1cn(-c2ccc(F)cc2F)c2cc(N3C[C@@H]4C[C@H]3CN4)c(F)cc2c1=O`, 0.39 mg/L (≈ 0.939 µM).

The test system of the next experiment is Staphylococcus epidermidis. As to the kind of experiment: In vitro Minimum inhibitory concentration against Staphylococcus epidermidis 3519. In kind it is functional.
Conditions: not given
Turning to `O=C(O)c1cn(-c2ccc(F)cc2)c2cc(N3CCC[C@@H]3CO)c(F)cc2c1=O`, it took 0.39 mg/L (≈ 0.974 µM) to inhibit growth (MIC).
The same measure, in the same setting: in the case of `COCC1C[C@H](N)CN1c1nc2c(cc1F)c(=O)c(C(=O)O)cn2-c1ccc(F)cc1F` (some centres not stated) it was 0.39 mg/L (≈ 0.87 µM); in that of `O=C(O)c1cn(-c2ccc(F)cc2F)c2cc(N3C[C@@H]4C[C@H]3CN4)c(F)cc2c1=O`, 0.39 mg/L (≈ 0.939 µM).

Another experiment deals with Streptococcus agalactiae. As to the kind of experiment: In vitro Minimum inhibitory concentration against Streptococcus agalactiae CMX 508. In kind it is functional.
Conditions: not given
`O=C(O)c1cn(-c2ccc(F)cc2)c2cc(N3CCC[C@@H]3CO)c(F)cc2c1=O` showed an MIC of 3.1 mg/L (≈ 7.74 µM).
Compound `COCC1C[C@H](N)CN1c1nc2c(cc1F)c(=O)c(C(=O)O)cn2-c1ccc(F)cc1F` (some centres not stated) gave an MIC of 0.78 mg/L (≈ 1.74 µM).
The same measure, in the same setting: the same measure for `O=C(O)c1cn(-c2ccc(F)cc2F)c2cc(N3C[C@@H]4C[C@H]3CN4)c(F)cc2c1=O`: 0.78 mg/L (≈ 1.88 µM).

A further experiment deals with Staphylococcus aureus. As to the kind of experiment: In vitro Minimum inhibitory concentration against Staphylococcus aureus 45. It is filed as functional.
Conditions: not given
With `O=C(O)c1cn(-c2ccc(F)cc2)c2cc(N3CCC[C@@H]3CO)c(F)cc2c1=O`, the MIC came to 0.39 mg/L (≈ 0.974 µM).
Still for that read-out and setting: in the case of `COCC1C[C@H](N)CN1c1nc2c(cc1F)c(=O)c(C(=O)O)cn2-c1ccc(F)cc1F` (some centres not stated) it was 0.39 mg/L (≈ 0.87 µM); in that of `O=C(O)c1cn(-c2ccc(F)cc2F)c2cc(N3C[C@@H]4C[C@H]3CN4)c(F)cc2c1=O`, 0.78 mg/L (≈ 1.88 µM).

In another experiment the test system is Staphylococcus aureus. As to the kind of experiment: In vitro Minimum inhibitory concentration against Staphylococcus aureus A5177. In kind it is functional.
Conditions: not given
For the compound `O=C(O)c1cn(-c2ccc(F)cc2)c2cc(N3CCC[C@@H]3CO)c(F)cc2c1=O`, 0.39 mg/L (≈ 0.974 µM) was the least that counted as inhibitory (MIC).
Still for that read-out and setting: in the case of `COCC1C[C@H](N)CN1c1nc2c(cc1F)c(=O)c(C(=O)O)cn2-c1ccc(F)cc1F` (some centres not stated) it was 0.2 mg/L (≈ 0.446 µM); in that of `O=C(O)c1cn(-c2ccc(F)cc2F)c2cc(N3C[C@@H]4C[C@H]3CN4)c(F)cc2c1=O`, 0.39 mg/L (≈ 0.939 µM).

A further experiment deals with Staphylococcus aureus. As to the kind of experiment: In vitro Minimum inhibitory concentration against Staphylococcus aureus ATCC 6538P.
Conditions: not given
In kind it is functional.
Compound `O=C(O)c1cn(-c2ccc(F)cc2)c2cc(N3CCC[C@@H]3CO)c(F)cc2c1=O` showed an MIC of 0.1 mg/L (≈ 0.25 µM).
The same measure, in the same setting: in the case of `COCC1C[C@H](N)CN1c1nc2c(cc1F)c(=O)c(C(=O)O)cn2-c1ccc(F)cc1F` (some centres not stated) it was 0.1 mg/L (≈ 0.223 µM); in that of `O=C(O)c1cn(-c2ccc(F)cc2F)c2cc(N3C[C@@H]4C[C@H]3CN4)c(F)cc2c1=O`, 0.1 mg/L (≈ 0.241 µM).

The next experiment relates to Streptococcus equinus. As to the kind of experiment: In vitro Minimum inhibitory concentration against Streptococcus bovis A5169. In kind it is functional.
Conditions: not given
Regarding `O=C(O)c1cn(-c2ccc(F)cc2)c2cc(N3CCC[C@@H]3CO)c(F)cc2c1=O`, 25 mg/L (≈ 62.4 µM) was the least that counted as inhibitory (MIC).
The same measure, in the same setting: the same measure for `COCC1C[C@H](N)CN1c1nc2c(cc1F)c(=O)c(C(=O)O)cn2-c1ccc(F)cc1F` (some centres not stated): 1.56 mg/L (≈ 3.48 µM); for `O=C(O)c1cn(-c2ccc(F)cc2F)c2cc(N3C[C@@H]4C[C@H]3CN4)c(F)cc2c1=O`: 1.56 mg/L (≈ 3.76 µM).

For a further experiment, the system named is Enterococcus faecium. Put plainly: In vitro Minimum inhibitory concentration against Streptococcus faecium ATCC 8043. In kind it is functional.
Conditions: not given
Compound `O=C(O)c1cn(-c2ccc(F)cc2)c2cc(N3CCC[C@@H]3CO)c(F)cc2c1=O` came in with an MIC of 3.1 mg/L (≈ 7.74 µM).
The same measure, in the same setting: the same measure for `COCC1C[C@H](N)CN1c1nc2c(cc1F)c(=O)c(C(=O)O)cn2-c1ccc(F)cc1F` (some centres not stated): 0.78 mg/L (≈ 1.74 µM); for `O=C(O)c1cn(-c2ccc(F)cc2F)c2cc(N3C[C@@H]4C[C@H]3CN4)c(F)cc2c1=O`: 0.39 mg/L (≈ 0.939 µM).

In a further experiment the test system is Streptococcus pyogenes. Put plainly: In vitro Minimum inhibitory concentration against Streptococcus pyogenes 930. It is filed as functional.
Conditions: not given
`O=C(O)c1cn(-c2ccc(F)cc2)c2cc(N3CCC[C@@H]3CO)c(F)cc2c1=O` displayed an MIC of 3.1 mg/L (≈ 7.74 µM).
The same measure, in the same setting: the same measure for `COCC1C[C@H](N)CN1c1nc2c(cc1F)c(=O)c(C(=O)O)cn2-c1ccc(F)cc1F` (some centres not stated): 0.78 mg/L (≈ 1.74 µM).
The same measure, in the same setting: in the case of `O=C(O)c1cn(-c2ccc(F)cc2F)c2cc(N3C[C@@H]4C[C@H]3CN4)c(F)cc2c1=O` it was 0.78 mg/L (≈ 1.88 µM).

A further experiment has as its system Staphylococcus aureus. As to the kind of experiment: In vitro Minimum inhibitory concentration against Staphylococcus aureus CMX 686B. It is filed as functional.
Conditions: not given
`O=C(O)c1cn(-c2ccc(F)cc2)c2cc(N3CCC[C@@H]3CO)c(F)cc2c1=O` had an MIC of 0.1 mg/L (≈ 0.25 µM).
The same measure, in the same setting: the same measure for `COCC1C[C@H](N)CN1c1nc2c(cc1F)c(=O)c(C(=O)O)cn2-c1ccc(F)cc1F` (some centres not stated): 0.1 mg/L (≈ 0.223 µM); for `O=C(O)c1cn(-c2ccc(F)cc2F)c2cc(N3C[C@@H]4C[C@H]3CN4)c(F)cc2c1=O`: 0.2 mg/L (≈ 0.481 µM).
